Assay results reported in US12234228B2, “Nitric oxide donor and anti-oxidant compounds” (University of North Texas Health Science Center, priority 2018, dated 2025).
Entries after “also recorded” stand apart in the source; their conditions may differ.

Experiments:
[1] = test system: primary microglia isolated from rat retina; experiment: TII induced cell death in primary microglia (LDH assay); assay type: cell-based; conditions: 10 μM, 24 h
[2] = test system: primary microglia isolated from rat retina; experiment: TII induced nitric oxide in primary microglia (Greiss assay); assay type: cell-based; conditions: 10 μM, 24 h
[3] = test system: primary microglia isolated from rat retina; experiment: TII induced ROS in primary microglia (DCFDA assay); conditions: for TII induced ROS production: 10 μM, 24 h, TII = TNF-α, IL-1β, IFN-γ; for activation of microglia by the compound itself: rat primary microglia, without TII
[4] = test system: Nitric oxide synthetase (NOS); experiment: NOS activating activity in HUVEC under H2O2 stress; assay type: cell-based, Human; conditions: for level of NOS: HUVEC treated with H2O2, both doses 0.05 μM and 0.5 μM; for eNOS activity: HUVEC under H2O2 induced oxidative stress
Description: In vitro Nitric oxide synthetase (NOS) activating activity. Human Umbilical Vascular Endothelial Cells (HUVECs) were plated at a density of 2×10^5 cells per well and were treated with or without H2O2 (200 μM) and compounds at different concentrations. NOS knock-down samples (NOSi) were cells exposed to a competitive NOS inhibitor L-NNA at 50 μM. After 24-hour-treatment, total NOS activity from treated cells was quantified using OxiSelect™ Intracellular Nitric Oxide (NO) Assay Kit where NOS activity correlates to fluorescent intensity^5.

HUVEC [5] = experiment: HUVEC viability / cytoprotection under H2O2 induced oxidative stress (MTT); assay type: cell-based, Human; conditions: for cytoprotective activity: different concentrations; for effective range of concentration to protect ECs: ECs under H2O2 stress
[6] = test system: mouse hippocampal neural cells (HT-22); experiment: cytotoxicity / proliferation in mouse hippocampal neural cells (HT-22); conditions: for cell proliferation: different doses
[7] = pyrogallol induced ROS (superoxide) scavenging assay; assay type: biochemical; conditions: Concentration 250 μM; Time 0.5 h
[8] = test system: human trabecular meshwork cells; experiment: cytoprotection of human trabecular meshwork cells under TBHP induced oxidative stress; assay type: cell-based; conditions: for cytoprotective activity: TBHP (300 μM) induced oxidative stress; for concentration providing cytoprotection: oxidative stress induced cell death model
HUVEC [9] = experiment: in vitro angiogenesis / tube formation under oxidative stress; assay type: cell-based, Human; conditions: for angiogenesis and new tube formation: HUVEC under oxidative stress (200 μM H2O2); for angiogenesis and new tube formation (FIG. 5): SA-9 0.5 μM, SA-10 0.005 μM, H2O2 200 μM, low serum media
Description: In vitro angiogenesis studies. Cultrex reduced growth factor basement membrane extracted gel (Cat. 3433-005-01, R&D Systems, Inc.) was coated on bottom of μ-Slide angiogenesis wells (Cat. 81506, iBidi GmbH Co.). ECs at early passages (passage 6th or earlier) were then seeded on gel at a seeding density of 25,000 cells/cm^2. Next, cells were treated with treatment groups (SA-2, SA-10, SA-10 NPs, VEGF) under stress condition (200 μM H2O2). After 12 hours of incubation, formation of new microtubes were visualized and captured on phase contrast microscopes. Images were then stacked and processed with Angiogenesis analyzer on ImageJ.

endothelial cells = experiment: transwell chemotaxis EC migration under oxidative stress; assay type: cell-based, Human; conditions: for EC migration (FIG. 6): 0.5 μM, transwell
Description: Cell migration studies. Transwell chemotaxis migration studies were conducted to study effects of SA-2 and SA-10 drugs on the migration of endothelial cells under stress conditions. To this, ECs were seeded at 50,000 cells/cm^2 on upper compartment (low serum media with 200 μM H2O2) and attracted to migrate through 8 μm-pore membrane by chemotaxis (SA compounds dissolved in low serum media with 200 μM H2O2) added in lower compartment. At 12 hours, migrated cells were fixed with 4% paraformaldehyde and stained with crystal violet prior to imaging and counting by Cell counter on ImageJ.

ROS in HUVEC cells = experiment: ROS scavenging in HUVEC under oxidative stress (DCFDA assay); assay type: cell-based, Human; conditions: H2O2 induced oxidative stress, SA-9 at 0.05 μM
[10] = test system: plasminogen activating inhibitor-1 (PAI-1); experiment: DEX induced PAI-1 in human trabecular meshwork cells (western blot); assay type: cell-based; conditions: DEX 100 nM, compound 100 μM, 48 hr, conditioned medium
Description: Briefly, cells were plated at a density of 2×10^5 cells per well and were treated with DEX (100 nM) or vehicle (ethanol) in the presence of 100 μM of SA-1, SA-2, SA-9, SA-10 and PBA (positive control) for 48 hr. Conditioned medium was collected for western blot. Experiments were performed in triplicates.
In vitro plasminogen activating inhibitor-1 (PAI-1) activity. Human primary trabecular meshwork (hTM) cells were plated in 6-well plates at a density of 2×10^5 cells per well and were treated with dexamethasone (DEX, 100 nM) or vehicle (ethanol) in the presence of test compounds (100 μM) for 48 hr. Conditioned medium was collected for Western Blot. Experiments were performed in triplicates […].

ischemic hindlimb mice = experiment: hind limb ischemia (PAD) model: blood perfusion and treadmill; assay type: in vivo, mouse
From the text: Parameters: Incline 30 degrees; max endurance test at […]; stimulation: 1.5 mA. Stimulation and distance count were stopped when a mouse met one of the following conditions: 1) total stimulation time 30 seconds; or 2) single stimulation time is more than 10 seconds.
Animal model. Since PAD happens commonly in old people, the inventor used old mice for ischemic hindlimb animal models. To this, male and female Balb/c mice at age of 30-40 weeks old were chosen for these in vivo studies. Animals were housed in individual cage at normal diet before performing ligation. In brief, animals were anesthetized with 2% isoflurane, and prior to incision, analgesic SR Buprenorphine was injected subcutaneously (at dose of 1 mg/kg for mice). Upon opening the incision on animals left legs, the membrane covering the inguinal fat tissue was carefully separated to expose the neurovascular bundle underneath and veins and nerves were then carefully separated from arteries. Next, three pair of 1 mm-distal ties (using 6-0 or 7-0 nonabsorbable suture) followed by transection (by spring scissor) were made on femoral artery, proximal caudal femoral artery and superficial caudal epigastric artery. Finally, the incision was closed by absorbable 5-0 or 6-0 sutures. The animal model appeared limping similar to literature report^37 from the time post-treatment until endpoint study.
Therapeutic groups of study and sample size. After 3 days of ligation, mice were randomly assigned into 4 groups: Sham, free SA-10, SA-10 NPs and blank PLGA NPs. Sham groups were injected with saline without any therapeutic treatment. Based on study of biodistribution, the route of administration was intramuscular (IM) injection. To determine sample size, a power of analysis was processed on SigmaPlot v.13 software. Significant difference would be considered when P<0.05. Based on the inventor's own experience and literature reports, the inventor selected power with α<0.05 as 0.8. Calculation yielded sample size as n=5.
In vivo blood perfusion and physical test. Animals under treatments were measured for their recovery physiologically and physically. In the former study, animals were anesthetized with 1.5-2% isoflurane, and blood perfusion was measured with Laser Speckle Contrast Imaging (PeriCam PSI NR, Perimed AB). Briefly, hemoglobin in shallow vessels and capillaries responded to exciting lasers in term of color pigments. The relative blood perfusion was calculated by device software (PIMSoft), and it correlated to typical pigments. […]
When the animal was not running for total of 30 seconds under stimulation, the run of animals was terminated from recording. Physical recovery of animals was then quantified as covered distance until exhaustion, which was obtained from the treadmill software.

I/R mice retina = experiment: retinal ischemia/reperfusion injury model in mouse eyes; assay type: in vivo
Description: The function of retinal ganglion cells (RGCs) can be non-invasively assessed by pattern electroretinogram (PERG) a technique that emphasizes the activity of inner retina neurons. The amplitude of PERG reflects the degree of apparent damage by RGCs. A murine model of ocular stroke was employed to evaluate the function of […] upon administration of SA-10. After a single intravitreal injection of 100 μM of SA-10 to the left eye of mice (C57BL/6J, 12 weeks old, female) having undergone ischemia reperfusion (I/R) procedure, standard PERG was analyzed 1 week post I/R to determine whether compound SA-10 could prevent PERG deficits (FIGS. 9A & 9B). […] However, there was a significant decrease in PBS treated mice compared to PERG amplitudes from sham mice (14.8±1.4 μV, n=5). As expected, compound SA-10 injection increased PERG amplitude compared to PBS-treated I/R mice (21±1.4 μV, n=5, p<0.05 vs. I/R+PBS treated mice; values signify mean±SEM).
Ischemic/reperfusion injury model in mouse eyes. Mice (C57Bl6/J, 12 weeks, n=5) were anesthetized and the ischemic/reperfusion (I/R) injury was performed on left eye after it was numbed with proparacaine followed by intravitreal injection of 2 μl of […] of compound SA-10 formulated in PBS (I/R+SA-10 group) or only 2 μl PBS to left eye (I/R+PBS group) at days 0. At day 7, pattern ERG was performed with the JORVEC System. SD-OCT was done to measure the change in overall thickness of retina layers and flash ERG was done to measure the function of bipolar cells (b-wave) as well as photoreceptor cells (a-wave) after 28 days. Pattern ERG was performed to measure the function of RGCs. Right eye was served as contralateral control.

[11] = HUVEC, H2O2 induced oxidative stress

Row | Compound | TII induced cell death (LDH release) [1] | TII induced nitric oxide (nitrite) production [2] | TII induced ROS production [3] | activation of microglia by the compound itself [3] | level of NOS [4] | eNOS activity [4] | cytoprotective activity (HUVEC [5]; [11]) | cell proliferation [6] | AUCt=0 to t=3h [7] | cytoprotective activity [8] | concentration providing cytoprotection [8] | angiogenesis and new tube formation (HUVEC [9]) | angiogenesis and new tube formation (FIG. 5) (HUVEC [9]) | EC migration (endothelial cells) | EC migration (FIG. 6) (endothelial cells) | ROS scavenging activity in DCFDA assay (ROS in HUVEC cells) | effective range of concentration to protect ECs (HUVEC [5]) | DEX induced PAI-1 [10] | other results
1 | Nc1c[n+](C2CCSCC2)no1 [SA-9] | decrease the cell death | decrease | decrease | did not activate | increased the level of NOS significantly | increase in eNOS activity | potent cytoprotective activity | dose dependent increase in cell proliferation | 3402 | superior cytoprotective activity | 8 µM | induce angiogenesis and new tube formation | induce angiogenesis and new tube formation | induce EC migration | induce EC migration | scavenged ROS |  |  | cytotoxicity ([6]; different concentrations): not toxic to neural cells
2 | Nc1c[n+](C2CCS(=O)(=O)CC2)no1 [SA-10] | decrease the cell death | decrease | decrease | did not activate |  | induced eNOS signals | potent cytoprotective activity |  |  | cytoprotective activity |  | induce angiogenesis and new tube formation; also recorded: significantly induced tube formation | induce angiogenesis and new tube formation | induce EC migration; also recorded: performed comparably to SA-2 | induce EC migration | didn't show any significant ROS scavenging activity | up to 100 μM | showed inhibition; also recorded: decreased DEX induced increase in PAI-I level | EC protection, longer protection study (HUVEC [5]; 2-day stress with 400 μM H2O2): protected over the course of 2-day stress; blood perfusion indexes (ischemic hindlimb mice; 0.125 mg/kg drug, IM, ischemic versus normal limb): performed better than sham and blank vehicle at the beginning; endurance run (ischemic hindlimb mice; 0.125 mg/kg drug, IM, treadmill distance until exhaustion): performed better than sham and blank vehicle at the beginning; recovery in treadmill experiment (ischemic hindlimb mice; IM injection, day 0 and day 7, vs. sham and VEGF): good recovery effects; new blood vessel formation and blood circulation (ischemic hindlimb mice; mouse leg after artery occlusion, assessed by treadmill): increase new blood vessel formation and blood circulation; PERG amplitude (I/R mice retina; 1 week post I/R, single intravitreal injection 100 μM, mean±SEM, n=5): 21±1.4 μV; retinal layer thickness by SD-OCT (I/R mice retina; after I/R): maintenance of retinal layer thickness; ERG amplitude (a- and b-wave) damage after I/R (I/R mice retina; flash ERG 28 days post-I/R): significantly reversed these damages; protein nitrosylation in retina (I/R mice retina; intravitreal dosing of 2%): doesn't cause any significant protein nitrosylation; retina protection against ischemic stroke and reperfusion (I/R mice retina; single intravitreal injection): protective to retina
3 | [NH-]c1c[n+](N2CCOCC2)no1 [SIN-1, reference compound] |  |  | did not |  |  |  |  |  | 1856 |  |  |  |  |  |  |  |  |  | 
4 | CC1(C)CC([n+]2cc(N)on2)CC(C)(C)N1O [SA-2, reference compound] |  |  |  |  | increased the level of NOS significantly | induced eNOS signals |  | didn't show such trend | 3338 |  | 16 µM |  |  |  |  |  | up to 1 μM | didn't show such activity | doses showing cytoprotective activity (HUVEC [5]; [11]): decreased as the dose increased
5 | O=c1cc(-c2ccccc2)oc2cc(O)c(O)c(O)c12 [Baicalein, baicalein] |  |  |  |  |  |  |  |  | 1944 |  |  |  |  |  |  |  |  |  | 
